Experimental findings from patent US20260078119A1, “DEGRADER COMPOUNDS AND USES THEREOF” (Bristol-Myers Squibb Company, priority 2024, published 2026) are described below.

Like-named read-outs stand apart in the source and are kept apart here.

For one assay, the system named is CAL-51 cells. The assay is described as follows: CAL-51 Cell Proliferation Assay. The assay is classed as cell-based. As to conditions: for EC50: 120 hours incubation, 10-point dose response, 4-fold dilutions starting at 10 μM, Cell-Titer-Glo, read-out: CAL-51 Prolif EC50; for CAL-51 Prolif Ymin: minimal percent of DMSO control observed in the concentrations tested (Ymin-obs), 120 hours. The method, boiled down:
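EC50 comes from a four-parameter logistic fit of blank-corrected, DMSO-normalised CellTiter-Glo signal after 120 h growth (37 °C, 350 cells/well, RPMI complete medium). Compounds ran as 10-point 4-fold series starting at 10 μM, duplicate, 0.1% DMSO. Ymin-obs records the minimal percent of DMSO control observed.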

In the next assay the target is T1, FAK (Homo sapiens, UniProt Q05397).
T1 construct: homozygous knock-in of a HiBiT tag (Promega Corporation, Madison, WI) to the C-terminus of the FAK gene in its natural genomic locus; endogenous in cells; host or cells: JHH-4-FAK-HiBiT clone d01 (CRISPR-Cas9 knock-in at the endogenous locus)
The assay is described as follows: FAK-HiBiT Degradation Assay. The assay is classed as cell-based. As to conditions: for DC50: read-out: FAK HiBiT EC50; for FAK HiBiT Ymin: lower limit of the four parameter fit (value A), Ymax derived using DMSO control, JHH-4-FAK-HiBiT cells, two hours. The procedure, abridged: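 Degradation read out by HiBiT lytic luminescence after 2 h compound exposure (top concentration 1 μM, 3-fold, 10 points) in JHH-4 clone d01 bearing endogenous FAK-HiBiT knock-in. Four-parameter logistic fit gave EC50 and Ymin; DMSO wells defined Ymax.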
Background: The HiBiT peptide binds its large partner to form an active luciferase.

[1] abbreviates: JHH-4-FAK-HiBiT clone d01 cells, two hours incubation, 10-point dose response, 3-fold dilution starting at 1 μM, Nano-Glo HiBiT luminescence.

T1 sequence (Q05397 whole entry): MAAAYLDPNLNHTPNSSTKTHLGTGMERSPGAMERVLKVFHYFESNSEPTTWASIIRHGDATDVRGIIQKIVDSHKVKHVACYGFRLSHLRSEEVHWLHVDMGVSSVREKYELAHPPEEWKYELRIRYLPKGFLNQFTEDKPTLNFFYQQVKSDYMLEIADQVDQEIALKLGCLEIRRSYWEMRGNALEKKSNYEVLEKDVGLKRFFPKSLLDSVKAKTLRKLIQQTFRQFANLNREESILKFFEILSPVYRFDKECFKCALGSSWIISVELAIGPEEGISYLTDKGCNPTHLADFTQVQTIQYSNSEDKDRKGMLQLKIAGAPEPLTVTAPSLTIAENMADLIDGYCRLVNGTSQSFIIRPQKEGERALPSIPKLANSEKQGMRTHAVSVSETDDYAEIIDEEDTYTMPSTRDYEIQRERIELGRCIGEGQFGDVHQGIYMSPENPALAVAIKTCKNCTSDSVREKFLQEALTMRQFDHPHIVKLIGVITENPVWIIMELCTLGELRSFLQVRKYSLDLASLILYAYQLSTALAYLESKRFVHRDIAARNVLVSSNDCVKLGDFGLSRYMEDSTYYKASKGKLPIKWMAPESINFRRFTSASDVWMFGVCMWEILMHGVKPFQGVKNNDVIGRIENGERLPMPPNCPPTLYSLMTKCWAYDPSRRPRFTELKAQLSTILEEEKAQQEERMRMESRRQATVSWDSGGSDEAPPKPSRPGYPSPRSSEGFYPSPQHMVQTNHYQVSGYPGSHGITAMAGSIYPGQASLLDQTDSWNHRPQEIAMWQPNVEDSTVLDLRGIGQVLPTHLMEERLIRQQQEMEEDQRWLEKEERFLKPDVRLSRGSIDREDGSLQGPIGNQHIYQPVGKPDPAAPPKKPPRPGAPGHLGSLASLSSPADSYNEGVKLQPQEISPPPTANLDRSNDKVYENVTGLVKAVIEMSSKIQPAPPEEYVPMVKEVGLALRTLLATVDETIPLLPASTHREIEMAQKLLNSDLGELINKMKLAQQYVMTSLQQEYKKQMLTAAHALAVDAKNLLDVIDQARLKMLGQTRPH

For `O=C1CCC(N2Cc3cc(Cn4ncc5c(-c6ncc(C(F)(F)F)cc6Cl)cc(N6CC(F)C6)nc54)ccc3C2=O)C(=O)N1` (centres unmarked) [Example 34, 3-[5-({4-[3-chloro-5-(trifluoromethyl)pyridin-2-yl]-6-(3-fluoroazetidin-1-yl)-1H-pyrazolo[3,4-b]pyridin-1-yl}methyl)-1-oxo-2,3-dihydro-1H-isoindol-2-yl]piperidine-2,6-dione], the EC50 (commonly the midpoint of the concentration-response curve) in the assay on CAL-51 cells (Homo sapiens) came to 1.08 nM. In addition, in the assay on CAL-51 cells, the “CAL-51 Prolif Ymin” value turned out to be 26.10. The DC50 at FAK (setting [1]) turned out to be 0.91 nM. Besides, the “FAK HiBiT Ymin” value on FAK is 8.98.
With `CCOc1ccc(-c2cc(N3CC[C@](C)(O)C3)nc3c2cnn3Cc2ccc3c(c2)CN(C2CCC(=O)NC2=O)C3=O)c(Cl)c1` (stereo partly drawn) [Example 96, 3-(5-{[4-(2-chloro-4-ethoxyphenyl)-6-[(3S)-3-hydroxy-3-methylpyrrolidin-1-yl]-1H-pyrazolo[3,4-b]pyridin-1-yl]methyl}-1-oxo-2,3-dihydro-1H-isoindol-2-yl)piperidine-2,6-dione], the EC50 in the assay on CAL-51 cells (Homo sapiens) came out at 1.88 nM. The “CAL-51 Prolif Ymin” value in the assay on CAL-51 cells amounted to 45.73. Moreover, on FAK (setting [1]), the DC50 came out at 20 nM. Also, the “FAK HiBiT Ymin” value at FAK came out at 17.46.
Take `O=C1CCC(N2Cc3cc(Cn4ncc5c(-c6ncc(F)cc6F)cc(N6CC(F)C6)nc54)ccc3C2=O)C(=O)N1` (centres unmarked) [Example 65, 3-(5-{[4-(3,5-difluoropyridin-2-yl)-6-(3-fluoroazetidin-1-yl)-1H-pyrazolo[3,4-b]pyridin-1-yl]methyl}-1-oxo-2,3-dihydro-1H-isoindol-2-yl)piperidine-2,6-dione]: the EC50 in the assay on CAL-51 cells (Homo sapiens) came out at 1.89 nM. Moreover, the “CAL-51 Prolif Ymin” value in the assay on CAL-51 cells is given as 36.07. The DC50 at FAK (setting [1]) turned out to be 4.47 nM. On FAK, the “FAK HiBiT Ymin” value came out at 17.03.
With `O=C1CCC(N2Cc3cc(Cn4ncc5c(-c6ncccc6Cl)cc(N6CC(F)C6)nc54)ccc3C2=O)C(=O)N1` (centres unmarked) [Example 89, 3-(5-{[4-(3-chloropyridin-2-yl)-6-(3-fluoroazetidin-1-yl)-1H-pyrazolo[3,4-b]pyridin-1-yl]methyl}-1-oxo-2,3-dihydro-1H-isoindol-2-yl)piperidine-2,6-dione], the EC50 in the assay on CAL-51 cells (Homo sapiens) was found to be 6.69 nM. For the same molecule, in the assay on CAL-51 cells, the “CAL-51 Prolif Ymin” value amounted to 24.94. In addition, at FAK (setting [1]), the DC50 was determined as 13.4 nM. The “FAK HiBiT Ymin” value on FAK is on record as 8.18.
As to `O=C1CCC(N2Cc3cc(Cn4cnc5c(-c6ccc(F)cc6F)cc(N6CC(F)C6)nc54)ccc3C2=O)C(=O)N1` (centres unmarked) [Example 22, 3-(5-((7-(2,4-difluorophenyl)-5-(3-fluoroazetidin-1-yl)-3H-imidazo[4,5-b]pyridin-3-yl)methyl)-1-oxoisoindolin-2-yl)piperidine-2,6-dione], the concentration giving a half-maximal response (EC50) in the assay on CAL-51 cells (Homo sapiens) is 0.39 nM. For the same molecule, in the assay on CAL-51 cells, the “CAL-51 Prolif Ymin” value is on record as 22.20. Besides, at FAK (setting [1]), the DC50 came to 0.68 nM. At FAK, the “FAK HiBiT Ymin” value is on record as 10.53.
As for `Cc1cnc(-c2cc(N3CC(F)C3)nc3c2cnn3Cc2ccc3c(c2)CN(C2CCC(=O)NC2=O)C3=O)c(C)c1` (centres unmarked) [Example 85, 3-(5-{[4-(3,5-dimethylpyridin-2-yl)-6-(3-fluoroazetidin-1-yl)-1H-pyrazolo[3,4-b]pyridin-1-yl]methyl}-1-oxo-2,3-dihydro-1H-isoindol-2-yl)piperidine-2,6-dione], the EC50 in the assay on CAL-51 cells (Homo sapiens) worked out at 6.82 nM. Moreover, in the assay on CAL-51 cells, the “CAL-51 Prolif Ymin” value came to 35.10. At FAK (setting [1]), the DC50 came out at 11.1 nM. Further, on FAK, the “FAK HiBiT Ymin” value turned out to be 11.71.
For `CCOc1cnc(-c2cc(N3CC(F)C3)nc3c2cnn3Cc2ccc3c(c2)CN([C@H]2CCC(=O)NC2=O)C3=O)c(C(F)(F)F)c1` [Example 32, (3S)-3-[5-({4-[5-ethoxy-3-(trifluoromethyl)pyridin-2-yl]-6-(3-fluoroazetidin-1-yl)-1H-pyrazolo[3,4-b]pyridin-1-yl}methyl)-1-oxo-2,3-dihydro-1H-isoindol-2-yl]piperidine-2,6-dione], in the assay with CAL-51 cells (Homo sapiens), the EC50 was 0.44 nM. Also, the “CAL-51 Prolif Ymin” value in the assay on CAL-51 cells stood at 9.16. Further, the DC50 on FAK (setting [1]) came to 0.82 nM. In addition, the “FAK HiBiT Ymin” value at FAK is 9.44.
Consider `CCc1cc2c(-c3ncc(C(F)(F)F)cc3Cl)cc(N3CC(F)C3)nc2n1Cc1ccc2c(c1)CN(C1CCC(=O)NC1=O)C2=O` (centres unmarked) [Example 16, 3-(5-((4-(3-chloro-5-(trifluoromethyl)pyridin-2-yl)-2-ethyl-6-(3-fluoroazetidin-1-yl)-1H-pyrrolo[2,3-b]pyridin-1-yl)methyl)-1-oxoisoindolin-2-yl)piperidine-2,6-dione], for which the EC50 in the assay on CAL-51 cells (Homo sapiens) amounted to 298 nM. Besides, the “CAL-51 Prolif Ymin” value with CAL-51 cells turned out to be 81.53. Besides, the DC50 on FAK (setting [1]) was at least 1000 nM. In addition, the “FAK HiBiT Ymin” value on FAK is recorded as 96.37.
For `Cc1nc2c(-c3ccc(C(F)(F)F)cc3Cl)cc(N3CC(F)C3)nc2n1Cc1ccc2c(c1)CN(C1CCC(=O)NC1=O)C2=O` (centres unmarked) [Example 20, 3-(5-((7-(2-chloro-4-(trifluoromethyl)phenyl)-5-(3-fluoroazetidin-1-yl)-2-methyl-3H-imidazo[4,5-b]pyridin-3-yl)methyl)-1-oxoisoindolin-2-yl)piperidine-2,6-dione], in that order: 0.37 nM, 24.38, 0.89 nM and 7.90.
For `Cc1cc(Cl)cnc1-c1c(F)c(N2CC(F)C2)nc2c1cnn2Cc1ccc2c(c1)CN(C1CCC(=O)NC1=O)C2=O` (centres unmarked) [Example 37, 3-(5-{[4-(5-chloro-3-methylpyridin-2-yl)-5-fluoro-6-(3-fluoroazetidin-1-yl)-1H-pyrazolo[3,4-b]pyridin-1-yl]methyl}-1-oxo-2,3-dihydro-1H-isoindol-2-yl)piperidine-2,6-dione], the concentration for a half-maximal effect (EC50) with CAL-51 cells (Homo sapiens) was found to be 0.6 nM. In addition, the “CAL-51 Prolif Ymin” value in the assay on CAL-51 cells amounted to 19.81. Also, the DC50 at FAK (setting [1]) was 0.98 nM. Moreover, the “FAK HiBiT Ymin” value at FAK was determined as 7.33.
For `CCOc1ccc(-c2cc(N3CC(F)C3)nc3c2cnn3Cc2ccc3c(c2)CN([C@H]2CCC(=O)NC2=O)C3=O)c(C)c1` [Example 39, (3S)-3-(5-{[4-(4-ethoxy-2-methylphenyl)-6-(3-fluoroazetidin-1-yl)-1H-pyrazolo[3,4-b]pyridin-1-yl]methyl}-1-oxo-2,3-dihydro-1H-isoindol-2-yl)piperidine-2,6-dione], the EC50 in the assay with CAL-51 cells (Homo sapiens) was determined as 0.82 nM. Moreover, the “CAL-51 Prolif Ymin” value in the assay with CAL-51 cells came to 28.13. Also, at FAK (setting [1]), the DC50 amounted to 1.12 nM. Further, on FAK, the “FAK HiBiT Ymin” value was determined as 7.78.
As for `CN(C)c1cc(-c2ncc(C#N)cc2Cl)c2c(n1)N(Cc1ccc3c(c1)CN(C1CCC(=O)NC1=O)C3=O)CC2` (centres unmarked) [Example 14, 5-chloro-6-(6-(dimethylamino)-1-((2-(2,6-dioxopiperidin-3-yl)-1-oxoisoindolin-5-yl)methyl)-2,3-dihydro-1H-pyrrolo[2,3-b]pyridin-4-yl)nicotinonitrile], in the assay with CAL-51 cells, the EC50 was 5.06 nM and the “CAL-51 Prolif Ymin” value came to 23.56. This molecule also displayed an EC50 on FAK (setting [1]) of 14.6 nM. For the same molecule, the “FAK HiBiT Ymin” value on FAK amounted to 7.20.
Take `O=C1CC[C@@H](N2Cc3cc(Cn4ncc5c(-c6ncc(C(F)(F)F)cc6Cl)c(F)c(N6CC(F)C6)nc54)ccc3C2=O)C(=O)N1` (single isomer, unassigned) [Example 78]: the EC50 in the assay on CAL-51 cells (Homo sapiens) came out at 1.76 nM. In addition, the “CAL-51 Prolif Ymin” value in the assay with CAL-51 cells is given as 24.33. Moreover, the DC50 on FAK (setting [1]) is 8.4 nM. Besides, the “FAK HiBiT Ymin” value at FAK is given as 5.59.
As for `CCOc1ccc(Cl)c(-c2cc(N3CC(F)C3)nc3c2cnn3Cc2ccc3c(c2)CN([C@H]2CCC(=O)NC2=O)C3=O)n1` [Example 111, (3S)-3-(5-{[4-(3-chloro-6-ethoxypyridin-2-yl)-6-(3-fluoroazetidin-1-yl)-1H-pyrazolo[3,4-b]pyridin-1-yl]methyl}-1-oxo-2,3-dihydro-1H-isoindol-2-yl)piperidine-2,6-dione], the EC50 with CAL-51 cells (Homo sapiens) is 551 nM. Further, in the assay with CAL-51 cells, the “CAL-51 Prolif Ymin” value worked out at 60.03. For the same molecule, the DC50 on FAK (setting [1]) turned out to be 45.8 nM. The “FAK HiBiT Ymin” value on FAK was 73.08.
With `O=C1CCC(N2Cc3cc(Cn4ncc5c(-c6ncc(OCC(F)(F)F)cc6Cl)cc(N6CC(F)C6)nc54)ccc3C2=O)C(=O)N1` (centres unmarked) [Example 59, 3-[5-({4-[3-chloro-5-(2,2,2-trifluoroethoxy)pyridin-2-yl]-6-(3-fluoroazetidin-1-yl)-1H-pyrazolo[3,4-b]pyridin-1-yl}methyl)-1-oxo-2,3-dihydro-1H-isoindol-2-yl]piperidine-2,6-dione], the EC50 with CAL-51 cells (Homo sapiens) was determined as 0.87 nM. In addition, in the assay with CAL-51 cells, the “CAL-51 Prolif Ymin” value amounted to 28.60. Also, the DC50 on FAK (setting [1]) is 3.54 nM. The “FAK HiBiT Ymin” value at FAK was determined as 10.50.
For `O=C1CC[C@H](N2Cc3cc(Cn4ncc5c(-c6ncc(C7COC7)cc6Cl)cc(N6CC(F)C6)nc54)ccc3C2=O)C(=O)N1` (single isomer, unassigned) [Example 108], in that order: 18.2 nM, 28.68, 40.5 nM and 13.46.
On the same counts, the results for `O=C1CCC(N2Cc3cc(Cn4ncc5c(-c6ncc(C(F)(F)F)cc6Cl)cc(N6CC(F)C6)cc54)ccc3C2=O)C(=O)N1` (centres unmarked) [Example 26, 3-(5-((4-(3-chloro-5-(trifluoromethyl)pyridin-2-yl)-6-(3-fluoroazetidin-1-yl)-1H-indazol-1-yl)methyl)-1-oxoisoindolin-2-yl)piperidine-2,6-dione] are 2.32 nM, 24.69, 8.5 nM and 11.53.
